Measurements from publication PMC5839409, “Targeting intracellular B2 receptors using novel cell-penetrating antagonists to arrest growth and induce apoptosis in human triple-negative breast cancer” (Oncotarget, 2018).
Square brackets hold non-standard residues; d marks the D form. Peptide text beside a SMILES is read from it.

Assays:
MDA-MB-231 cells = assay: Anchorage-dependent clonogenic assay; type: cell-based, human; conditions: 10-14 days
Procedure: MDA-MB-231 cells were plated at 200 cells/well in a six-well dish in 2 ml DMEM medium containing 10% FBS. […] After 10 to 14 days, colonies were fixed and stained with 0.5% methylene blue in 50% ethanol. Excess of staining solution was removed carefully with tap water and the plates were dried overnight. Colony counting and densitometric analyses (to measure total colony numbers and surface areas) were performed using the Image Pro Plus 5.1 software.

[1] = target: T1, B2R endogenously expressed in the human de-endothelized umbilical veins (Homo sapiens, UniProt P30411); assay: Functional bioassay on isolated human de-endothelized umbilical veins (hUV); conditions: read-out: biological activity; agonists, isometric contraction of human vessels
T1 construct: B2R endogenously expressed in the human de-endothelized umbilical veins (hUV); from tissue; host or cells: human umbilical vein, de-endothelized
T1 sequence (P30411 1-391): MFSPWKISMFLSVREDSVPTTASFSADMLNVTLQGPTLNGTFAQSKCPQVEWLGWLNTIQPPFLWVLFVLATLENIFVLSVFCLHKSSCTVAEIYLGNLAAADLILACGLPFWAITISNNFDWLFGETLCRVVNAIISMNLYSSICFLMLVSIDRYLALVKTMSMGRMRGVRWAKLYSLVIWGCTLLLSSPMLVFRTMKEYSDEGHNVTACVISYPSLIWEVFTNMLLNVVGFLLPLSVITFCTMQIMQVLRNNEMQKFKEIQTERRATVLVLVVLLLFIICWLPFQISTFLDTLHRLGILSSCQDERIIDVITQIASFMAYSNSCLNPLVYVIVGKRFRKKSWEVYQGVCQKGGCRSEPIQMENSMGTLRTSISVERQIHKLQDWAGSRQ
Procedure: For testing the pharmacological activities of agonists, complete concentration-contractile response curves to agents were done at the B2R endogenously expressed in the human de-endothelized umbilical veins (hUV), as previously described. EC50 values (or potencies) of the agonists were calculated from the obtained concentration-response curves. […] The collection of umbilical cords for the bioassays was approved by the local ethical committee, and maternal consent was obtained in every case.

human B2R = target: T2, human B2R (Homo sapiens, UniProt P30411); assay: Radioligand competition binding on live adherent HEK-293T cells transiently transfected with hB2R; conditions: read-out: binding affinity; agonists, HEK-293T cells transfected with B2R
T2 construct: expressed in transfected cells; host or cells: HEK-293T
T2 sequence (P30411 1-391): T1 sequence (P30411 1-391)

For N=C(N)NCCC[C@H](NC(=O)[C@H](Cc1ccccc1)NC(=O)[C@@H]1CCCN1C(=O)[C@H](CO)NC(=O)[C@H](Cc1ccccc1)NC(=O)CNC(=O)[C@@H]1CCCN1C(=O)[C@@H]1CCCN1C(=O)[C@H](CCCNC(=N)N)NC(=O)CNC(=O)CNC(=O)CNC(=O)[C@@H](CCCNC(=N)N)NC(=O)[C@@H](CCCNC(=N)N)NC(=O)[C@@H](CCCNC(=N)N)NC(=O)[C@@H](CCC(N)=O)NC(=O)[C@@H](CCCNC(=N)N)NC(=O)[C@@H](CCCNC(=N)N)NC(=O)[C@@H](CCCCN)NC(=O)[C@@H](CCCCN)NC(=O)[C@@H](CCCNC(=N)N)NC(=O)CN)C(=O)O [DTat-BK] (H-G[dR][dK][dK][dR][dR][dQ][dR][dR][dR]GGGRPPGFSPFR-OH; N-terminus and C-terminus assumed), the “colony number (agonist effect)” value (MDA-MB-231 cells) was “did not increase colony number”, the “colony surface area (agonist effect)” value (MDA-MB-231 cells) was “increase in colony surface area” and the EC50 [1] was 0.35 ± 0.001 µM. For the same compound, the IC50 (human B2R) was 0.11 ± 0.004 µM.
